# Experimental data published in US9365583B2, “Substituted pyrazoles and uses thereof” (Genentech, Inc., priority 2013, dated 2016).
# Molecular target: T1, N-terminally GST-tagged DLK (catalytic domain amino acid 1-520) (Homo sapiens, UniProt Q12852)
# T1 construct: N-terminally GST-tagged DLK (catalytic domain amino acid 1-520); purchased Carna Bioscience
# T1 sequence (Q12852 1-520): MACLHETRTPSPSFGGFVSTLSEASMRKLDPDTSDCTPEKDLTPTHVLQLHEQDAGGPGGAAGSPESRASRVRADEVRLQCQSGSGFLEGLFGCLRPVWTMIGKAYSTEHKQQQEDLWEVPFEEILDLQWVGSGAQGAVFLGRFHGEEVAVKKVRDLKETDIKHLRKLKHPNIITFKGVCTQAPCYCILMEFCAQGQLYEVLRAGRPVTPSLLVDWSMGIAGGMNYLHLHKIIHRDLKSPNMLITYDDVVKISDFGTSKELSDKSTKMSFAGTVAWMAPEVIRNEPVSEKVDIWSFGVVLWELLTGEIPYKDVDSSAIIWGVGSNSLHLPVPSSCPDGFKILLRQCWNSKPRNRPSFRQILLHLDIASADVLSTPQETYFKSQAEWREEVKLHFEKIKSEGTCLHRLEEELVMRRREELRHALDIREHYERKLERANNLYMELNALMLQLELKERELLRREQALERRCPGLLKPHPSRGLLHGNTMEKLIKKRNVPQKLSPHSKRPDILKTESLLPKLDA
# Assay: DLK TR-FRET inhibition assay
# Format: biochemical
# Settings: 5 nM GST-DLK, 40 nM HIS-MKK4 K131M substrate, 30 μM ATP, 60 minutes at ambient temperature
# In short: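 Phosphorylated MKK4 was quantified by TR-FRET (Eu-labelled anti-phospho-MKK4, D2 anti-HIS; 3 h, 665 and 615 nm emission) after EDTA quench. Reactions held 5 nM GST-tagged DLK catalytic domain (1-520), 40 nM HIS-MKK4 K131M substrate, 30 μM ATP and compound (3-fold series from 20 uM), 60 min, room temperature, pH 7.5.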
row,Ki,SMILES
1,6.4 nM,"CO[C@@H]1C[C@@H]2[C@H](C1)[C@H]2c1cc(-c2cnc(N)c(OC(F)F)c2)nn1C(C)C [compound 195, 3-(difluoromethoxy)-5-(1-isopropyl-5-((1R,3s,5S,6r)-3-methoxy-bicyclo[3.1.0]hexan-6-yl)-1H-pyrazol-3-yl)pyridin-2-amine]"
2,3.3 nM,"CC(C)n1nc(-c2cnc(N)c(OC(F)(F)F)c2)cc1[C@H]1[C@@H]2C[C@@H](N3C[C@@H]4C[C@H]3CO4)C[C@@H]21 [compound 164, 5-(5-((1R,3s,5S,6S)-3-((1S,4S)-2-oxa-5-azabicyclo[2.2.1]heptan-5-yl)bicyclo[3.1.0]hexan-6-yl)-1-isopropyl-1H-pyrazol-3-yl)-3-(trifluoromethoxy)pyridin-2-amine]"
3,0.4 nM,"CC(C)n1nc(-c2cnc(N)c(OC(F)F)c2)cc1[C@H]1[C@@H]2C[C@H](N3CCN4CCCC4C3)C[C@@H]21 (stereo partly drawn) [compound 260, 3-(difluoromethoxy)-5-(5-((1R,3r,5S,6r)-3-(hexahydropyrrolo [1,2-a]pyrazin-2(1H)-yl)bicyclo [3.1.0]hexan-6-yl)-1-isopropyl-1H-pyrazol-3-yl)pyridin-2-amine]"
4,0.7 nM,"CC(C)n1nc(-c2cnc(N)c(OC(F)F)c2)cc1[C@H]1[C@@H]2C[C@@H](N3CCN(CC(F)F)CC3)C[C@@H]21 [compound 257, 5-(5-((1R,3s,5S,6r)-3-(4-(2,2-difluoro-ethyl)piperazin-1-yl)bicyclo [3.1.0]hexan-6-yl)-1-isopropyl-1H-pyrazol-3-yl)-3-(difluoromethoxy)pyridin-2-amine]"
5,2.6 nM,"CC(C)n1nc(-c2cnc(N)c(OC(F)(F)F)c2)cc1[C@H]1[C@@H]2C[C@@H](N3C[C@@H]4C[C@H]3CN4C)C[C@@H]21 [compound 209, 5-(1-isopropyl-5-((1R,3s,5S,6S)-3-((1S,4S)-5-methyl-2,5-diazabicyclo [2.2.1]heptan-2-yl)bicyclo [3.1.0]hexan-6-yl)-1H-pyrazol-3-yl)-3-(trifluoromethoxy) pyridin-2-amine]"
6,4.5 nM,"CC(C)n1nc(-c2cnc(N)c(OC(F)F)c2)cc1C1[C@H]2CC(N3CCOCC(F)C3)C[C@@H]12 (single isomer, unassigned) [compound 173]"
7,2 nM,"COC1CCN([C@@H]2C[C@@H]3[C@H](C2)[C@H]3c2cc(-c3cnc(N)c(OC(F)F)c3)nn2C(C)C)CC1 [compound 250, 3-(difluoromethoxy)-5-(1-isopropyl-5-((1R,3s,5S,6r)-3-(4-methoxy-piperidin-1-yl)bicyclo[3.1.0]hexan-6-yl)-1H-pyrazol-3-yl) pyridin-2-amine]"
8,2.8 nM,"CC(C)n1nc(-c2cnc(N)c(OC(F)F)c2)cc1[C@H]1[C@@H]2C[C@H](N3CC4(CN(C)CCO4)C3)C[C@@H]21 [compound 228, 3-(difluoromethoxy)-5-(1-isopropyl-5-((1R,3r,5S,6r)-3-(8-methyl-5-oxa-2,8-diazaspiro[3.5]nonan-2-yl)bicyclo[3.1.0]hexan-6-yl)-1H-pyrazol-3-yl)pyridin-2-amine]"
9,2.1 nM,"CC(C)n1nc(-c2cnc(N)c(C(F)(F)F)c2)cc1[C@H]1[C@@H]2CC(N3CCN4CCOCC4C3)C[C@@H]21 (single isomer, unassigned) [compound 184]"
10,2.1 nM,"CC(C)n1nc(-c2cnc(N)c(C(F)(F)F)c2)cc1[C@H]1[C@@H]2C[C@H](N3CCN(C)C[C@@H]3C)C[C@@H]21 [compound 242, 5-(5-((1R,3r,5S,6S)-3-((S)-2,4-dimethylpiperazin-1-yl)bicyclo [3.1.0]hexan-6-yl)-1-isopropyl-1H-pyrazol-3-yl)-3-(trifluoromethyl) pyridin-2-amine]"
11,2.8 nM,"CC(C)n1nc(-c2cnc(N)c(C(F)(F)F)c2)cc1[C@H]1[C@@H]2C[C@H](N(C)C)C[C@@H]21 [compound 188, 5-(5-((lR,3r,5S,6r)-3-(dimethylamino)bicyclo[3.1,0]hexan-6-yl)-1-isopropyl-1 H-pyrazol-3-yl)-3-(trifluoromethyl)pyridin-2-am inc]"
12,1.6 nM,"CC(C)n1nc(-c2cnc(N)c(OC(F)F)c2)cc1[C@H]1[C@@H]2C[C@H](N3CCN(C)C[C@@H]3C)C[C@@H]21 [compound 238, 3-(difluoromethoxy)-5-(5-((1R,3r,5S,6S)-3-((S)-2,4-dimethyl-piperazin-1-yl)bicyclo[3.1.0]hexan-6-yl)-1-isopropyl-1H-pyrazol-3-yl)pyridin-2-amine]"

# The next lines start with the compound.
row,SMILES,Ki
1,"COC1CN([C@H]2C[C@@H]3[C@H](C2)[C@H]3c2cc(-c3cnc(N)c(C(F)(F)F)c3)nn2CC(F)F)C1 [compound 144, 5-(1-(2,2-difluoroethyl)-5-((1R,3r,5S,6r)-3-(3-methoxyazetidin-1-yl)bicyclo[3.1.0]hexan-6-yl)-1H-pyrazol-3-yl)-3-(trifluoro-methyl)pyridin-2-amine]",2.8 nM
2,"CC(C)n1nc(-c2cnc(N)c(OC(F)(F)F)c2)cc1[C@H]1[C@@H]2C[C@H](N3CCOC[C@@H]3C)C[C@@H]21 [compound 97, 5-(1-isopropyl-5-((1R,3r,5S,6S)-3-((S)-3-methylmorpholino)bicyclo[3.1.0]hexan-6-yl)-1H-pyrazol-3-yl)-3-(trifluoromethoxy) pyridin-2-amine]",4.12 nM
3,"CC(C)n1nc(-c2cnc(N)c(OC(F)F)c2)cc1[C@H]1[C@@H]2CC3(CCO3)C[C@@H]21 (stereo partly drawn) [compound 92, 3-(difluoromethoxy)-5-(1-isopropyl-5-((1 R,5S,6r)-spiro[bicyclo [3.1.0]hexane-3,2′-oxetan]-6-yl)-1H-pyrazol-3-yl)pyridin-2-amine]",9.4 nM
4,"CC(C)n1nc(-c2cnc(N)c(OC(F)F)c2)cc1[C@H]1[C@@H]2C[C@H](N3C[C@@H]4C[C@H]3CO4)C[C@@H]21 [compound 83, 5-(5-((1R,3r,5S,6S)-3-((1S,4S)-2-oxa-5-azabicyclo[2.2.1]heptan-5-yl)bicyclo[3.1.0]hexan-6-yl)-1-isopropyl-1H-pyrazol-3-yl)-3-(difluoromethoxy)pyridin-2-amine]",0.12 nM
5,"CCN1CCN([C@H]2C[C@@H]3[C@H](C2)[C@H]3c2cc(-c3cnc(N)c(C(F)(F)F)c3)nn2C(C)C)CC1 [compound 16, 5-(5-((1R,3r,5S,6r)-3-(4-ethylpiperazin-1-yl)bicyclo[3.1.0]hexan-6-yl)-1-isopropyl-1H-pyrazol-3-yl)-3-(trifluoromethyl)pyridin-2-amine]",9.1 nM
6,"CC(C)n1nc(-c2cnc(N)c(C(F)(F)F)c2)cc1[C@H]1[C@@H]2C[C@H](N3C[C@@H]4C[C@H]3CO4)C[C@@H]21 [compound 72, 5-(5-((1R,3r,5S,6S)-3-((1S,4S)-2-oxa-5-azabicyclo[2.2.1]heptan-5-yl)bicyclo[3.1.0]hexan-6-yl)-1-isopropyl-1H-pyrazol-3-yl)-3-(trifluoromethyl)pyridin-2-amine]",3.48 nM
7,"CC(C)n1nc(-c2cnc(N)c(C(F)(F)F)c2)cc1[C@H]1[C@@H]2C[C@H](N3CCOC[C@@H]3C)C[C@@H]21 [compound 98, 5-(1-isopropyl-5-((1R,3r,5S,6S)-3-((S)-3-methylmorpholino)bicyclo[3.1.0]hexan-6-yl)-1H-pyrazol-3-yl)-3-(trifluoromethyl) pyridin-2-amine]",4.89 nM
8,"CC(C)n1nc(-c2cnc(N)c(OC(F)(F)F)c2)cc1[C@H]1[C@@H]2C[C@H](N3C[C@@H]4C[C@H]3CO4)C[C@@H]21 [compound 71, 5-(5-((1R,3r,5S,6S)-3-((1S,4S)-2-oxa-5-azabicyclo[2.2.1]heptan-5-yl)bicyclo[3.1.0]hexan-6-yl)-1-isopropyl-1H-pyrazol-3-yl)-3-(trifluoromethoxy)pyridin-2-amine]",3.62 nM
9,"CC(C)n1nc(-c2cnc(N)c(OCC(F)(F)F)c2)cc1[C@H]1[C@@H]2C[C@@H](N3CCOCC3)C[C@@H]21 [compound 96, 5-(1-isopropyl-5-((1R,3s,5S,6r)-3-morpholinobicyclo[3.1.0]hexan-6-yl)-1H-pyrazol-3-yl)-3-(2,2,2-trifluoroethoxy)pyridin-2-amine]",19 nM
10,"CC(C)n1nc(-c2cnc(N)c(OC(F)F)c2)cc1[C@H]1[C@@H]2C[C@@H](NCC(F)(F)F)C[C@@H]21 [compound 121, 3-(difluoromethoxy)-5-(1-isopropyl-5-((1R,3s,5S,6r)-3-((2,2,2-trifluoroethyl)amino)bicyclo [3.1.0]hexan-6-yl)-1H-pyrazol-3-yl) pyridin-2-amine]",6.68 nM
11,"CC(C)n1nc(-c2cnc(N)c(C(F)(F)F)c2)cc1[C@H]1[C@@H]2C[C@@H](O)C[C@@H]21 [compound 5, (1R,3s,5S,6r)-6-(3-(6-amino-5-(trifluoromethyl)pyridin-3-yl)-1-isopropyl-1H-pyrazol-5-yl) bicyclo[3.1.0]hexan-3-ol]",18.8 nM
12,"CC(C)n1nc(-c2cnc3cnn([C@@H](C)c4ccccn4)c3c2)cc1[C@H]1[C@@H]2C[C@@H](N3CCOCC3)C[C@@H]21 [compound 32, 4-((1R,3R,5S,6r)-6-(1-isopropyl-3-(1-((S)-1-(pyridin-2-yl)ethyl)-1H-pyrazolo[4,3-b]pyridin-6-yl)-1H-pyrazol-5-yl)bicyclo[3.1.0]hexan-3-yl)morpholine]",4.08 nM
